The values below come from patent US20060100264A1, “3,3'-Diindolylmethane immune activating compositions” (priority 2004, published 2006).

One experiment deals with IFNGR1 protein. Conditions: previous studies (ref 27), cited from earlier work.
The test system of experiment [1] is DMBA-induced mammary tumors. Conditions: single oral dose prior to carcinogen, rats; cited from earlier work.
The test system of the next experiment is GAS element. In words: Electrophoretic gel mobility shift assay, STAT1 binding to GAS element. The experiment is classed as cell-based, human. Conditions: DIM pretreatment for various times, IFNγ 30 min. The procedure:
An electrophoretic gel mobility shift assay was used to verify that the phosphorylated STAT1 was effectively activated to a dimer that could bind to the GAS element. The ^32P-labeled DNA probe containing a GAS sequence was incubated with nuclear extracts from cells pretreated with DIM for various times as indicated, and with IFNγ for 30 min. […] When samples were incubated with an antibody specific to STAT1, the band was super-shifted, confirming the identity of the protein binding to the labeled GAS probe.

Experiment [2] deals with OAS-Luc reporter (promoter and 5′-flanking region of p69-OAS). In words: OAS-Luc luciferase reporter in transiently transfected MCF-7 cells. It is filed as cell-based, human. Conditions: 24 h treatment. The method, then: (§1) In a further experiment to examine whether the inducing effects of DIM are at the transcriptional level, the effect of DIM on activities of two luciferase reporter constructs, OAS-Luc (12) and 4GAS-Luc (13) was examined. OAS-Luc contains the promoter and 5′-flanking region (−972) of p69-OAS and GAS-Luc contains four repeats of the consensus GAS element. MCF-7 cells transiently transfected with these reporter constructs were treated with IFNγ, DIM, or a combination of both for 24 h. […] IFNγ induced transcriptional activity of this reporter in a concentration dependent manner to a maximum of about 1.8 fold, which is less than the response of the endogenous gene of about 5.0 fold. In marked contrast to the maximum effects of combined treatments of the inducers on endogenous gene expression (nearly 12-fold increase compared to vehicle treated cells), the reporter gene construct responded with less than a 3-fold increase over the controls.

For the next experiment, the system named is MHC-I complex. In words: Flow cytometry of cell surface MHC-I expression (FITC-conjugated HLA-ABC antibody). It is filed as cell-based, human. The procedure:
Induced expression of the MHC-I complex is a well-established and important down-stream target of IFNγ-mediated signal transduction. To examine further the possible synergistic effects of DIM on a significant metabolic product of IFNγ signaling, we tested the effects of co-treatment with DIM on IFNγ induced expression of MHC-I complex in MCF-7 cells.
Flow cytometry analysis of cell surface MHC-I expression was conducted using FITC-conjugated HLA-ABC antibody. In an initial control experiment, cultured MCF-7 cells were pre-treated with 30 μM DIM for 48 hours and then with or without 10 ng/mL IFNγ for another 16 hours. […] In a subsequent experiment in which cells were treated with a range of IFNγ concentrations and analyzed with the anti-MHC-I antibody, a strong signal indicative of IFNγ-induced MHC-I expression was detectable at 0.1 ng/mL and appeared to plateau at 10 ng/mL. In cells treated with vehicle control only, MHC-I expression was not detected in greater than 99% of cells.
Exposure to DIM of cells treated with 10 ng/mL of IFNγ, about 95% of which expressed MHC-I, produced a strong time dependent increase in MFV from 76.04 to 131.41. […] As expected, addition of an IFNγ blocking antibody into the medium before the treatments abrogated the inducing effects of co-treatments of IFNγ and DIM on MHC-I expression, confirming the requirement of the cytokine for the observed effects.

The subject of the next experiment is MHC-II. Kind of experiment: MHC-II expression in MCF-7 cells. It is filed as cell-based, human. The text has this: In an analogous further experiment, we observed no effect of DIM or IFNγ on MHC-II expression in the MCF-7 cells.
Experiment [3] has as its system HLA-A, HLA-B, HLA-C, β-microtubulin, TAP1 and TAP2. In words: RT-PCR of MHC-I components and transporters in MCF-7 cells. It is filed as cell-based, human. The source says:
RT-PCR was used to examine the expression of the four major components of human MHC-I, including HLA-A, HLA-B, HLA-C, and β-microtubulin, as well as two important associated transporters, TAP1 and TAP2. […] As expected, the expressions of these genes were increased 2-8 fold by treatment with IFNγ.

Experiment [4] concerns MCF-7 cells. Kind of experiment: Cell proliferation over a 4-day treatment period. The experiment is classed as cell-based, human. The procedure: Functional consequences of the synergistic effects of DIM and IFNγ on gene expression were examined at the level of proliferation rates. Cell proliferation was measured over a 4-day treatment period with treatments with DIM, IFNγ, or both substances, and compared to a DMSO control. With heat-treated serum, IFNγ alone reduced cell proliferation by as much as 70% compared to controls. DIM treatments reduced proliferation by as much as 60%. […] These effects were accompanied by morphological changes characteristic of apoptosis.

In experiment [5] the test system is MCF-7 cells. Kind of experiment: Flow cytometry of cell cycling (G1 phase). It is filed as cell-based, human. Conditions: up to 3 days; control approximately 50% in G1. The source says: Flow cytometry was used to determine the effects of DIM and IFNγ on cell cycling. […] In control groups approximately 50% of the cells were in G1. Treatment with IFNγ alone caused a small progressive increase in G1 blocked cells of up to 10% above the DMSO control, after 3 days.

In experiment [6] the test system is 4GAS-Luc reporter (four repeats of the consensus GAS element). Kind of experiment: 4GAS-Luc luciferase reporter in transiently transfected MCF-7 cells. The experiment is classed as cell-based, human. The conditions noted are these: DIM 50 μM, IFNγ concentration dependent, maximum. The procedure:
as §1
Thus, treatment with DIM (50 μM) by itself again produced a 2 to 3-fold increase in activity of this reporter. IFNγ treatments, however, produced a robust concentration dependent increase in reporter activity to approximately 40-fold induction compared to vehicle treated controls. […]

As to `OCc1c[nH]c2ccccc12` [I3C, indole-3-carbinol], the “IFNGR1 receptor expression increase” value in the experiment with IFNGR1 protein (24 hours of treatment with I3C) is given as “about 3 fold”. In addition, in the experiment on IFNGR1 protein (I3C), the “Maximum level of IFNGR1 protein induction” value is given as “about 7 fold” and the “Time at which maximum IFNGR1 protein induction was reached” value is given as “about 48 hours”. Moreover, the “Reduction of incidence and multiplicity of DMBA-induced mammary tumors” value in [1] was 70-80%.
With “IFNγ: Type II IFN, interferon-γ or the immune interferon, a cytokine”, in the experiment on GAS element, the “Band-shift of 32P-labeled GAS probe with nuclear extracts” value is reported as “produced a band-shift”. The “Maximum induction of OAS-Luc reporter” value in experiment [2] is on record as “about 1.8 fold”. For the same compound, the “Percentage of MHC-I positive cells” value with MHC-I complex (0.1 ng/mL IFNγ, without or with 30 μM DIM pretreatment for 48 h) was found to be 8.11%. For the same compound, the “MHC-I expression/cell (MFV)” value with MHC-I complex (10 ng/mL IFNγ, without or with exposure to DIM) is 76.04. Moreover, the “Cells which expressed MHC-I” value in the experiment on MHC-I complex (10 ng/mL of IFNγ) is “about 95%”. Further, in the experiment on MHC-I complex (MCF-7 cells), the “IFNγ concentration at which MHC-I signal appeared to plateau” value was found to be 10 ng/mL and the “IFNγ concentration at which induced MHC-I expression was detectable” value worked out at 0.1 ng/mL. Moreover, in the experiment with MHC-II, the “Effect on MHC-II expression” value is on record as “no effect”. Also, the “Expression levels of the six genes (MHC-I components, TAP1, TAP2) above vehicle/background” value in experiment [3] was 2-8 fold. Also, the “Reduction of cell proliferation compared to controls” value in the experiment with MCF-7 cells [4] (4-day treatment, heat-treated serum) is recorded as at most 70%. The “Effect on proliferation of cells grown in unheated serum” value with MCF-7 cells [4] (unheated serum) is reported as “no significant effect”. Further, the “Increase in G1 blocked cells above the DMSO control” value in the experiment with MCF-7 cells [5] is listed as “up to 10%”. The “Induction of 4GAS-Luc reporter activity compared to vehicle treated controls” value in [6] is “approximately 40 fold”.
